Assay results published in ChEMBL document CHEMBL4825763, “Discovery of potent and selective Bcl-2 inhibitors with acyl sulfonamide skeleton” (Bioorg Med Chem, 2021).
The source made the active and inactive calls. No cut-off for these calls is given here.

How the values were obtained:
RS4-11 = assay: Antiproliferative activity against human RS4-11 cells assessed as inhibition of cell proliferation measured after 72 hrs by CCK8 assay; format: functional, cell-based; settings: RS4-11, 72 h
[1] = target: T1, Caspase-3 (Canis lupus familiaris) (UniProt Q8MKI5); assay: Induction of caspase 3 activity in dog platelets assessed as cleavage of Ac-DEVD-Pna at 0.5 to 2.5 uM using Ac-DEVD-pNA as substrate incubated for 90 mins; format: tissue-based; settings: Platelet, dose 0.5-2.5 µM
T1 sequence (whole entry): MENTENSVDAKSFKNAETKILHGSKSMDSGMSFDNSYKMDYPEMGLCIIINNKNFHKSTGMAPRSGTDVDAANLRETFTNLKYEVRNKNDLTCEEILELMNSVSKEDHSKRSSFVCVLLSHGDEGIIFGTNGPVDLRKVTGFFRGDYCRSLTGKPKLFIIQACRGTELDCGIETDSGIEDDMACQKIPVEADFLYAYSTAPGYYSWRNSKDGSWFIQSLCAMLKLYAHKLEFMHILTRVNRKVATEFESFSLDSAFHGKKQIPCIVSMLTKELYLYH

[2] = Toxicity in C57BL/6 mouse plasma assessed as effect on platelet count at 300 mg/kg, ig for 4 hrs; format: organism-based; settings: in vivo, po
[3] = Metabolic stability in mouse liver microsomes assessed as parent compound remaining incubated for 60 mins in presence of NADPH; format: ADME, Microsome; settings: read-out: Stabilty
[4] = Metabolic stability in rat liver microsomes assessed as parent compound remaining incubated for 60 mins in presence of NADPH; format: ADME, Microsome; settings: read-out: Stabilty
[5] = Metabolic stability in human liver microsomes assessed as parent compound remaining incubated for 60 mins in presence of NADPH; format: ADME, Microsome; settings: read-out: Stabilty
[6] = Tmax in rat at 5 mg/kg, ig administered as single dose measured upto 24 hrs by LC-MS/MS analysis; format: ADME, organism-based; settings: in vivo, po
[7] = Cmax in rat at 5 mg/kg, ig administered as single dose measured upto 24 hrs by LC-MS/MS analysis; format: ADME, organism-based; parameters: route intragastric, dose 5 mg/kg, time <=24; settings: in vivo, po
[8] = AUC (0 to t) in rat at 5 mg/kg, ig administered as single dose measured upto 24 hrs by LC-MS/MS analysis; format: ADME, organism-based; parameters: route intragastric, dose 5 mg/kg, time <=24; settings: in vivo, po
[9] = AUC (0 to infinity) in rat at 5 mg/kg, ig administered as single dose measured upto 24 hrs by LC-MS/MS analysis; format: ADME, organism-based; parameters: route intragastric, dose 5 mg/kg, time <=24; settings: in vivo, po
[10] = Half life in rat at 5 mg/kg, ig administered as single dose measured upto 24 hrs by LC-MS/MS analysis; format: ADME, organism-based; settings: in vivo, po
[11] = MRT (0 to t) in rat at 5 mg/kg, ig administered as single dose measured upto 24 hrs by LC-MS/MS analysis; format: ADME, organism-based; settings: in vivo, po
[12] = Tmax in mouse at 10 mg/kg, ig administered as single dose measured upto 24 hrs by LC-MS/MS analysis; format: ADME, organism-based; settings: in vivo, po
[13] = Cmax in mouse at 10 mg/kg, ig administered as single dose v measured upto 24 hrs by LC-MS/MS analysis; format: ADME, organism-based; parameters: route intragastric, dose 10 mg/kg, time <=24; settings: in vivo, po
[14] = AUC (0 to t) in mouse at 10 mg/kg, ig administered as single dose measured upto 24 hrs by LC-MS/MS analysis; format: ADME, organism-based; parameters: route intragastric, dose 10 mg/kg, time <=24; settings: in vivo, po
[15] = AUC (0 to infinity) in mouse at 10 mg/kg, ig administered as single dose measured upto 24 hrs by LC-MS/MS analysis; format: ADME, organism-based; parameters: route intragastric, dose 10 mg/kg, time <=24; settings: in vivo, po
[16] = Half life in mouse at 10 mg/kg, ig administered as single dose measured upto 24 hrs by LC-MS/MS analysis; format: ADME, organism-based; settings: in vivo, po
[17] = MRT (0 to t) in mouse at 10 mg/kg, ig administered as single dose measured upto 24 hrs by LC-MS/MS analysis; format: ADME, organism-based; settings: in vivo, po
Bcl-2-like protein 1 = Bcl-2-like protein 1 (Homo sapiens, UniProt Q07817); assay: Displacement of Bak derived peptide from Bcl-xL (unknown origin) measured after 15 mins by microplate reader assay
Bcl-2-like protein 1, sequence (Q07817 whole entry): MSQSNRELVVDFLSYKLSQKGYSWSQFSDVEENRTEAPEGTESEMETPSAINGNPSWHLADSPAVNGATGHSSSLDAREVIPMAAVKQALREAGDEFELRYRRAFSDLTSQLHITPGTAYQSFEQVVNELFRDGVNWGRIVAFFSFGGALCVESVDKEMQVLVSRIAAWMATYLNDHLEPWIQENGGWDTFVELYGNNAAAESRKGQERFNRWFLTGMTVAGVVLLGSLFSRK

[18] = target: Apoptosis regulator Bcl-2 (Homo sapiens, UniProt P10415); assay: Displacement of Bak derived peptide from Bcl-2 (unknown origin) measured after 15 mins by microplate reader assay
Apoptosis regulator Bcl-2, sequence (P10415 whole entry): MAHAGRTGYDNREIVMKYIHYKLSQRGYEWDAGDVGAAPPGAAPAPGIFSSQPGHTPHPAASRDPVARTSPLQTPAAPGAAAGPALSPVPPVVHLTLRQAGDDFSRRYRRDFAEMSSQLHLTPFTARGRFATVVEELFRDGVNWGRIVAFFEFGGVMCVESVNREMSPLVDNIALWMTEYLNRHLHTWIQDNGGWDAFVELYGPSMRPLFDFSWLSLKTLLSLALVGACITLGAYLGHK

Compound | IC50 (RS4-11) [nM] | IC50 (Bcl-2-like protein 1) [nM] | IC50 [18] [nM] | other results
CC1(C)CCC(CN2CCN(c3ccc(C(=O)NS(=O)(=O)c4ccc(NCC5CCOCC5)c([N+](=O)[O-])c4)c(Oc4cnc5[nH]ccc5c4)c3)CC2)=C(c2cccc(C(F)(F)F)c2)C1 | 63 |  |  | 
CC1(C)CCC(CN2CCN(c3ccc(C(=O)NS(=O)(=O)c4ccc(NCC5CCOCC5)c([N+](=O)[O-])c4)c(Oc4cnc5[nH]ccc5c4)c3)CC2)=C(c2ccc(Cl)cc2)C1 [VENETOCLAX] | 1.8 |  |  | Activity [1]: inactive; Activity [2]: Toxic; remaining at 1 h [3]: 58.8%; remaining at 1 h [4]: 46.3%; remaining at 1 h [5]: 54.9%; Tmax [6]: 2.67 h; Cmax [7]: 355 ng/mL; AUC(0-t) at 24 h [8]: 1380 ng·h/mL; AUC(0-inf) [9]: 1470 ng·h/mL; half-life [10]: 1.9 h; MRT last at 24 h [11]: 3.55 h; Tmax [12]: 1.67 h; Cmax [13]: 1310 ng/mL; AUC(0-t) at 24 h [14]: 7760 ng·h/mL; AUC(0-inf) [15]: 8100 ng·h/mL; half-life [16]: 2.78 h; MRT last at 24 h [17]: 4.71 h
CC1(C)CCC(CN2CCN(c3ccc(C(=O)NS(=O)(=O)c4ccc(NCC5CCOCC5)c([N+](=O)[O-])c4)c(Oc4cnc5[nH]ccc5c4)c3)CC2)=C(c2ccc(C(F)(F)F)c(Cl)c2)C1 | 81 | > 2000 |  | 
CC1(C)CCC(CN2CCN(c3ccc(C(=O)NS(=O)(=O)c4ccc(OCC5CCCOC5)c([N+](=O)[O-])c4)c(Oc4cnc5[nH]ccc5c4)c3)CC2)=C(c2ccc(C(F)(F)F)cc2)C1 (stereo unspecified) | 12 | 761 | 3 | 
CCN(CC)CCCNc1ccc(S(=O)(=O)NC(=O)c2ccc(N3CCN(CC4=C(c5ccc(C(F)(F)F)cc5)CC(C)(C)CC4)CC3)cc2Oc2cnc3[nH]ccc3c2)cc1[N+](=O)[O-] | 3 | 25 | 0.3 | 
CC1(C)CCC(CN2CCN(c3ccc(C(=O)NS(=O)(=O)c4ccc(NCC5CCOCC5)c([N+](=O)[O-])c4)c(Oc4cnc5[nH]ccc5c4)c3)CC2)=C(c2ccc(Cl)cc2C(F)(F)F)C1 | 74 | > 2000 |  | 
CC1(C)CCC(CN2CCN(c3ccc(C(=O)NS(=O)(=O)c4ccc(OCC5CCOC5)c([N+](=O)[O-])c4)c(Oc4cnc5[nH]ccc5c4)c3)CC2)=C(c2ccc(C(F)(F)F)cc2)C1 (stereo unspecified) | 47 | 1700 | 4.4 | 
COc1ccc(C2=C(CN3CCN(c4ccc(C(=O)NS(=O)(=O)c5ccc(NCC6CCOCC6)c([N+](=O)[O-])c5)c(Oc5cnc6[nH]ccc6c5)c4)CC3)CCC(C)(C)C2)cc1 | 12 | 813 | 3.8 | 
CN(C)CCCNc1ccc(S(=O)(=O)NC(=O)c2ccc(N3CCN(CC4=C(c5ccc(C(F)(F)F)cc5)CC(C)(C)CC4)CC3)cc2Oc2cnc3[nH]ccc3c2)cc1[N+](=O)[O-] | 3.9 | 29 | 0.89 | 
CC1(C)CCC(CN2CCN(c3ccc(C(=O)NS(=O)(=O)c4ccc(NC5CCOC5)c([N+](=O)[O-])c4)c(Oc4cnc5[nH]ccc5c4)c3)CC2)=C(c2ccc(C(F)(F)F)cc2)C1 (stereo unspecified) | 32 | 837 | 1.9 | 
CC1(C)CCC(CN2CCN(c3ccc(C(=O)NS(=O)(=O)c4ccc(OCC5CCOCC5)c([N+](=O)[O-])c4)c(Oc4cnc5[nH]ccc5c4)c3)CC2)=C(c2ccc(C(F)(F)F)cc2)C1 | 5.9 | 862 | 1 | Activity [1]: inactive; Activity [2]: Non-Toxic; remaining at 1 h [3]: 76.6%; remaining at 1 h [4]: 74.8%; remaining at 1 h [5]: 75.8%; Tmax [6]: 2.67 h; Cmax [7]: 438 ng/mL; AUC(0-t) at 24 h [8]: 2620 ng·h/mL; AUC(0-inf) [9]: 3130 ng·h/mL; half-life [10]: 4.5 h; MRT last at 24 h [11]: 5.18 h; Tmax [12]: 4 h; Cmax [13]: 920 ng/mL; AUC(0-t) at 24 h [14]: 6960 ng·h/mL; AUC(0-inf) [15]: 7000 ng·h/mL; half-life [16]: 2.99 h; MRT last at 24 h [17]: 5.7 h
CC1(C)CCC(CN2CCN(c3ccc(C(=O)NS(=O)(=O)c4ccc(NCC5CCOCC5)c([N+](=O)[O-])c4)c(Oc4cnc5[nH]ccc5c4)c3)CC2)=C(c2ccccc2C(F)(F)F)C1 | 18 | 200 | 1.7 | 
CN1CCC(COc2ccc(S(=O)(=O)NC(=O)c3ccc(N4CCN(CC5=C(c6ccc(C(F)(F)F)cc6)CC(C)(C)CC5)CC4)cc3Oc3cnc4[nH]ccc4c3)cc2[N+](=O)[O-])C1 (stereo unspecified) | 10 | 16.8 | 0.75 | 
CC1(C)CCC(CN2CCN(c3ccc(C(=O)NS(=O)(=O)c4ccc(NCC5CCOCC5)c([N+](=O)[O-])c4)c(Oc4cnc5[nH]ccc5c4)c3)CC2)=C(c2ccc(C(F)(F)F)cc2)C1 | 6.2 | 788 | 1.5 | 
CC1(C)CCC(CN2CCN(c3ccc(C(=O)NS(=O)(=O)c4ccc(OCC5CCSCC5)c([N+](=O)[O-])c4)c(Oc4cnc5[nH]ccc5c4)c3)CC2)=C(c2ccc(C(F)(F)F)cc2)C1 | 15 | 500 | 1.65 | 
CN1CCC(CNc2ccc(S(=O)(=O)NC(=O)c3ccc(N4CCN(CC5=C(c6ccc(C(F)(F)F)cc6)CC(C)(C)CC5)CC4)cc3Oc3cnc4[nH]ccc4c3)cc2[N+](=O)[O-])C1 (stereo unspecified) | 8.3 | 35.7 | 2.4 | 
CC(Oc1ccc(S(=O)(=O)NC(=O)c2ccc(N3CCN(CC4=C(c5ccc(C(F)(F)F)cc5)CC(C)(C)CC4)CC3)cc2Oc2cnc3[nH]ccc3c2)cc1[N+](=O)[O-])C1CCOCC1 (stereo unspecified) | 269 | 618 | 9.2 | 
CC(C)C(=O)N1CCC(CNc2ccc(S(=O)(=O)NC(=O)c3ccc(N4CCN(CC5=C(c6ccc(C(F)(F)F)cc6)CC(C)(C)CC5)CC4)cc3Oc3cnc4[nH]ccc4c3)cc2[N+](=O)[O-])CC1 | 5.3 | 453 | 2.4 | 
CCN1CCC(COc2ccc(S(=O)(=O)NC(=O)c3ccc(N4CCN(CC5=C(c6ccc(C(F)(F)F)cc6)CC(C)(C)CC5)CC4)cc3Oc3cnc4[nH]ccc4c3)cc2[N+](=O)[O-])CC1 | 4.9 | 34.6 | 0.5 | 
CC1(C)CCC(CN2CCN(c3ccc(C(=O)NS(=O)(=O)c4ccc(OC5CCOCC5)c([N+](=O)[O-])c4)c(Oc4cnc5[nH]ccc5c4)c3)CC2)=C(c2ccc(C(F)(F)F)cc2)C1 | 375 | > 2000 | 8.4 | 
CC1(C)CCC(CN2CCN(c3ccc(C(=O)NS(=O)(=O)c4ccc(NCC5CCOC5)c([N+](=O)[O-])c4)c(Oc4cnc5[nH]ccc5c4)c3)CC2)=C(c2ccc(C(F)(F)F)cc2)C1 (stereo unspecified) | 24.2 | 897 | 4.7 | 
